Here are results for 21 compounds from patent US5618812A, “Benzodiazepine derivatives” (Merck Sharp & Dohme, Ltd., priority 1992, dated 1997).

SMILES strings stand for the structures. Structures can show the parent of a compound that is named as a salt. Where two headings read alike, the source gives them in different places.

One assay addresses T1, CCK-A (Rattus norvegicus, UniProt P30551).
T1 sequence (P30551 1-444): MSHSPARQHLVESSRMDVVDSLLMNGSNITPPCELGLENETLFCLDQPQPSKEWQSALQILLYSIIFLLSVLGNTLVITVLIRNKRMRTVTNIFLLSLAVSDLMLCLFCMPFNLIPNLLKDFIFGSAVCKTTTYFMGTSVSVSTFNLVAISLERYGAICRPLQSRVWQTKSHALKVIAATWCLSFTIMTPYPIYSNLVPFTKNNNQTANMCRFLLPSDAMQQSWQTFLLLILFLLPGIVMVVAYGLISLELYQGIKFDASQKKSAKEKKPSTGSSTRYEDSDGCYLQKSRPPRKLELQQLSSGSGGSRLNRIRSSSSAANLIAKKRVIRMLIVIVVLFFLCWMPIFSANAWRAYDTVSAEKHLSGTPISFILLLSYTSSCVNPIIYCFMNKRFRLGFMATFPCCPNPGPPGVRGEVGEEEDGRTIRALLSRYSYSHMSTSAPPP
The experiment in a line: biochemical. Type of assay: binding. On the procedure:
The CCK-A and CCK-B antagonising activity of the compounds described herein was evaluated using the assays described in published European patent application no. 0514133. The method essentially involves determining the concentration of the test compound required to displace 50% of the specific ^125 I-CCK from rat pancreas (CCK-A) or guinea pig brain (CCK-B).

The target in the next assay is T2, CCK-B (Cavia porcellus, UniProt H0VZC5).
T2 construct: guinea pig brain (CCK-B); from tissue; host or cells: guinea pig brain
T2 sequence (H0VZC5 1-426): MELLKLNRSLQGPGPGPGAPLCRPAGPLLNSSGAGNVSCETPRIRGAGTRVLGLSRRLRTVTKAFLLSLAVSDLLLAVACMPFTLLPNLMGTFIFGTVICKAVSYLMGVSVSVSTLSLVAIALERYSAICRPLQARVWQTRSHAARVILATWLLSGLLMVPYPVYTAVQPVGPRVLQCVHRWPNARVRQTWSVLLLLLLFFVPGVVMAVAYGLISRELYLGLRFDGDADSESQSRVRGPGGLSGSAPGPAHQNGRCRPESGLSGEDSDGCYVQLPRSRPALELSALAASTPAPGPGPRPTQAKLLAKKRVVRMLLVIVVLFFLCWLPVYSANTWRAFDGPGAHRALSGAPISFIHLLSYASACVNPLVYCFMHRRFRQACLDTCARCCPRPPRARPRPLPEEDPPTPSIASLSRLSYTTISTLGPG
The experiment in a line: displacement of specific 125I-CCK from guinea pig brain (CCK-B receptor binding). On the procedure:
The CCK-A and CCK-B antagonising activity of the compounds described herein was evaluated using the assays described in published European patent application no. 0514133. The method essentially involves determining the concentration of the test compound required to displace 50% of the specific ^125 I-CCK from rat pancreas (CCK-A) or guinea pig brain (CCK-B). The data in Table 1 were obtained for compounds of the Examples.

[1] abbreviates: rat pancreas (CCK-A), 125I-CCK, read-out: CCK RECEPTOR BINDING RESULTS IC50 125I-CCK Pancreas.
Where [2] appears, read: read-out: CCK RECEPTOR BINDING RESULTS IC50 125I-CCK Brain.
The mark [3] stands for this setting: CCK RECEPTOR BINDING RESULTS IC50 125I-CCK Pancreas, rat pancreas (CCK-A), 125I-CCK.
Setting [4] is: CCK RECEPTOR BINDING RESULTS IC50 125I-CCK Brain.
The mark [5] stands for this setting: read-out: CCK RECEPTOR BINDING RESULTS IC50 125I-CCK Pancreas.

As to `Cc1cccc(NC(=O)NC2N=C(N3CCC(C(F)(F)F)CC3)c3ccccc3N(C)C2=O)c1` (single isomer, unassigned) [20 (enantiomer B)], the IC50 turned out to be 40 nM on CCK-A (setting [1]) and 44 nM at CCK-B (setting [2]).

`Cc1cccc(NC(=O)NC2N=C(N3CCCCC3(C)C)c3ccccc3N(C)C2=O)c1` (single isomer, unassigned) [22 (enantiomer A)]: the IC50 on CCK-A (setting [1]) stood at 3670 nM; at CCK-B (setting [2]), 32.9 nM.

Turning to `Cc1cccc(NC(=O)NC2N=C(N3[C@H](C)C[C@H](C)C[C@@H]3C)c3ccccc3N(C)C2=O)c1` (single isomer, unassigned) [24 (enantiomer A)], the IC50 at CCK-A (setting [1]) worked out at 2250 nM; at CCK-B (setting [2]), 0.927 nM.

Take `Cc1cccc(NC(=O)NC2N=C(N3[C@H](C)C[C@H](C)C[C@@H]3C)c3ccccc3N(C)C2=O)c1` (single isomer, unassigned) [24 (enantiomer B)]: the IC50 at CCK-A (setting [1]) was 46 nM; on CCK-B (setting [2]), 50 nM.

For the compound `Cc1cccc(NC(=O)NC2N=C(N3CCC(C)(C)CC3)c3ccccc3N(CC(F)(F)F)C2=O)c1` (single isomer, unassigned) [28 (enantiomer A)], the IC50 is 239 nM on CCK-A (setting [1]) and 27.8 nM at CCK-B (setting [2]).

For `Cc1cccc(NC(=O)NC2N=C(N3CCC(C)(C)CC3)c3ccccc3N(CC(F)(F)F)C2=O)c1` (single isomer, unassigned) [28 (enantiomer B)], the results for the IC50 on CCK-A (setting [1]) and at CCK-B (setting [2]) were 3.97 nM and 281 nM, respectively.

For the compound `CCN1C(=O)C(NC(=O)Nc2cccc(C)c2)N=C(N2CCC(C)(C)CC2)c2ccccc21` (single isomer, unassigned) [Example 30], the IC50 on CCK-A (setting [1]) was determined as 347 nM; at CCK-B (setting [2]) it was 0.36 nM.

For `Cc1cccc(NC(=O)NC2N=C(N3CC4CCC(CC4)C3)c3ccccc3N(C)C2=O)c1` (single isomer, unassigned; (+)) [Example 34, (+)-N-[5-(3-Azabicyclo[3,2,2]nonan-3-yl)-2,3-dihydro-1-methyl-2-oxo-1H-1,4-benzodiazepin-3-yl]-N'-[3-methylphenyl]urea Hydrochloride], the figures for the IC50 at CCK-A (setting [3]) and at CCK-B (setting [4]) were 6.46 nM and 26.7 nM, respectively.

In the case of `CN1C(=O)C(NC(=O)Nc2cccc(F)c2)N=C(N2CC3CCC(CC3)C2)c2ccccc21` (single isomer, unassigned; (+)) [Example 37, (+)-N-[5-(3-Azabicyclo[3,2,2]nonan-3-yl)-2,3-dihydro-1-methyl-2-oxo-1H-1,4-benzodiazepin-3-yl]-N'-[3-fluorophenyl]urea Hydrochloride], the IC50 on CCK-A (setting [3]) came out at 9 nM; at CCK-B (setting [4]) it was 144 nM.

Consider `Cc1cccc(NC(=O)NC2N=C(N3CC4CCC(C4)C3)c3ccccc3N(C)C2=O)c1` (single isomer, unassigned; (+)) [Example 40, (+)-N-[5-(3-Azabicyclo[3,2,1]octan-3-yl)-2,3-dihydro-1-methyl-2-oxo-1H-1,4-benzodiazepin-3-yl]-N'-[3-methylphenyl]urea Hydrochloride], for which the IC50 on CCK-A (setting [5]) came to 8.8 nM; on CCK-B (setting [2]), 36.3 nM.

On to `Cc1ccc(NC(=O)NC2N=C(N3CC4CCC(CC4)C3)c3ccccc3N(C)C2=O)cc1F` (single isomer, unassigned; (+)) [Example 46, (+)-N-[5-(3-Azabicyclo[3,2,2]nonan-3-yl)-2,3-dihydro-1-methyl-2-oxo-1H-1,4-benzodiazepin-3-yl]-N'-[3-fluoro-4-methylphenyl]urea Hydrochloride], for which the IC50 on CCK-A (setting [3]) amounted to 23.7 nM; at CCK-B (setting [4]) it was 20.1 nM.

With `CN1C(=O)C(NC(=O)Nc2cccc(I)c2)N=C(N2CC3CCC(CC3)C2)c2ccccc21` (single isomer, unassigned; (+)) [Example 49, (+)-N-[5-(3-Azabicyclo[3,2,2]nonan-3-yl)-2,3-dihydro-1-methyl-2-oxo-1H-1,4-benzodiazepin-3-yl]-N'-[3-iodophenyl]urea], the IC50 on CCK-A (setting [1]) was found to be 9.65 nM; on CCK-B (setting [4]), 82.7 nM.

On to `Cc1cc(NC(=O)NC2N=C(N3CC4CCC(CC4)C3)c3ccccc3N(C)C2=O)ccc1F` (single isomer, unassigned; (+)) [Example 54, (+)-N-[5-(3-Azabicyclo[3,2,2]nonan-3-yl)-2,3-dihydro-1-methyl-2-oxo-1H-1,4-benzodiazepin-3-yl]-N'-[4-fluoro-3-methylphenyl]urea Hydrochloride], for which the IC50 turned out to be 8.4 nM on CCK-A (setting [3]) and 68 nM on CCK-B (setting [4]).

For the compound `CN1C(=O)C(NC(=O)Nc2cccc(C(F)(F)F)c2)N=C(N2CC3CCC(CC3)C2)c2ccccc21` (single isomer, unassigned; (+)) [Example 56, (+)-N-[5-(3-Azabicyclo[3,2,2]nonan-3-yl)-2,3-dihydro-1-methyl-2-oxo-1H-1,4-benzodiazepin-3-yl]-N'-[3-trifluoromethylphenyl]urea Hydrochloride], the IC50 amounted to 62 nM at CCK-A (setting [1]) and 47 nM at CCK-B (setting [2]).

With `Cc1cccc(NC(=O)NC2N=C(N3C[C@H]4CCCC[C@H]4C3)c3ccccc3N(C)C2=O)c1` (single isomer, unassigned; (+)) [Example 59, (+)-N-[2,3-Dihydro-1-methyl-5-(cis-octahydroisoindol-2-yl)-2-oxo-1H-1,4-benzodiazepin-3-yl]N'[-3-methylphenyl]urea hydrochloride], the IC50 at CCK-A (setting [5]) is 9.7 nM; on CCK-B (setting [2]), 144 nM.

Consider `CCCN1C(=O)C(NC(=O)Nc2cccc(C)c2)N=C(N(C)C2CCCCC2)c2ccccc21` (single isomer, unassigned; (+)) [Example 62, (+) 5-(N-Cyclohexyl-N-methylamino)-2,3-dihydro-2-oxo-1-propyl-1H-1,4-benzodiazepin-3-y1-N'-[3-methylphenyl]urea], for which the IC50 at CCK-A (setting [1]) is 114 nM; on CCK-B (setting [2]), 35.2 nM.

As for `Cc1cccc(NC(=O)NC2N=C(N(C)C3CCCCC3)c3ccccc3N(C)C2=O)c1` (single isomer, unassigned; (+)) [Example 65, (+)5-(N-Cyclohexyl-N-methylamino)-2,3-dihydro-2-oxo-1-methyl-1H-1,4-benzodiazepin-3-yl-N'[3-methylphenyl]urea. Hydrochloride], the concentration for half-maximal inhibition (IC50) at CCK-A (setting [1]) was 138 nM; on CCK-B (setting [2]) it was 13.7 nM.

Take `Cc1cccc(NC(=O)NC2N=C(N(C)C3CCCCCC3)c3ccccc3N(C)C2=O)c1` (single isomer, unassigned; (+)) [Example 68, (+)-5-(N-Cycloheptyl-N-methylamino)-2,3-dihydro-1-methyl-2-oxo-1H-1,4-benzodiazepin-3-yl-N'-[3-methylphenyl]urea. Hydrochloride]: the IC50 on CCK-A (setting [1]) was 53.4 nM; at CCK-B (setting [2]), 26.6 nM.

Turning to `CN1C(=O)C(NC(=O)c2cc3ccccc3[nH]2)N=C(N2CC3CCC(CC3)C2)c2ccccc21` (single isomer, unassigned; (+)) [Example 89, (+)-N-(5-(3-Azabicyclo[3,2,2]nonan-3-yl)-2,3-ihydro-1-methyl-2-oxo-1H-1,4-benzodiazepin-3-yl)-1H-indole-2-carboxamide dihydrochloride], the IC50 was determined as 0.26 nM on CCK-A (setting [1]) and 653 nM at CCK-B (setting [2]).

With `CC1CCN(C2=NC(NC(=O)Nc3ccc4c(c3)CCC4)C(=O)N(C)c3ccccc32)CC1` (single isomer, unassigned; (-)) [Example 12, (-)-N-[2,3,Dihydro-1-methyl-5-(4-methylpiperidin-1-yl)-2-oxo-1H-1,4-benzodiazepin-3-yl]N'-[indan-5-yl]urea hydrochloride], the IC50 was 2180 nM at CCK-A (setting [1]) and 0.28 nM at CCK-B (setting [2]).

For the compound `Cc1cccc(NC(=O)NC2N=C(N3CCCC(C)(C)C3)c3ccccc3N(C)C2=O)c1` (single isomer, unassigned; (-)) [Example 26, (-)-N-[2,3-dihydro-(3,3-dimethylpiperidin-1-yl)-1-methyl-2-oxo-1H-1,4-benzodiazepin-3-yl]N'-[3-methylphenyl]urea], the IC50 on CCK-A (setting [1]) was above 3000 nM; at CCK-B (setting [2]), 0.27 nM.
